Experimental data from US11247972B2, “Compositions and methods for treating toxoplasmosis, cryptosporidiosis, and other apicomplexan protozoan related diseases” (University of Washington through its Center for …, priority 2010, dated 2022).

How the values were obtained:
PfCDPK1 = PfCDPK1 (Plasmodium falciparum (isolate 3D7), UniProt P62344); experiment: biochemical; conditions: read-out: PfCDPK1 (% inhibition @ 3 uM)
PfCDPK4 = PfCDPK4 (Plasmodium falciparum (isolate 3D7), UniProt Q8IBS5); experiment: biochemical; conditions: read-out: PfCDPK4 (% inhibition @ 3 uM)

| SMILES | inhibition at 3 µM (PfCDPK1) | inhibition at 3 µM (PfCDPK4) |
| --- | --- | --- |
| Nc1ncnc2c1c(-c1ccc3cc(OCc4ccc(Cl)cc4)ccc3c1)nn2CC1CCNCC1 [Compound 39, 3-(6-(4-chlorobenzyloxy)naphthalen-2-yl)-1-(piperidin-4-ylmethyl)-1H-pyrazolo[3,4-d]pyrimidin-4-amine] | 102% | 98% |
| CC(C)(C)n1ncc2c(N)ncnc21 [Compound 123] | 62% | 4% |
| Cn1ncc2cc(-c3nn(C(C)(C)C)c4ncnc(N)c34)ccc21 [Compound 142] | 98% | 97% |
| CC(C)(C)n1nc(-c2ccc(NC(=O)Cc3ccccc3)cc2)c2c(N)ncnc21 [Compound 66, N-(4-(4-amino-1-tert-butyl-1H-pyrazolo[3,4-d]pyrimidin-3-yl)phenyl)-2-phenylacetamide] | 100% | 77% |
| CC(C)COc1ccc2cc(-c3nn(CC4CCN(C)CC4)c4ncnc(N)c34)ccc2c1 [Compound 124] | 98% | 93% |
| CC(Oc1ccc2cc(-c3nn(C(C)C)c4ncnc(N)c34)ccc2c1)c1ccccc1 (centres unmarked) [Compound 53, 1-isopropyl-3-(6-(1-phenylethoxy)naphthalen-2-yl)-1H-pyrazolo[3,4-d]pyrimidin-4-amine] | 98% | 57% |
| Nc1ncnc2c1cnn2CC1CCNCC1 [Compound 99] | 70% | 5% |
| CC(C)(C)C(=O)Nc1ccc(-c2nn(C(C)(C)C)c3ncnc(N)c23)cc1 [Compound 60, N-(4-(4-amino-1-tert-butyl-1H-pyrazolo[3,4-d]pyrimidin-3-yl)phenyl)pivalamide] | 98% | 85% |
| Nc1ncnc2c1c(Cc1cccc3ccccc13)nn2CCC1CCNCC1 [Compound 5i, 3-(naphthalen-1-ylmethyl)-1-(2-(piperidin-4-yl)ethyl)-1H-pyrazolo[3,4-d]pyrimidin-4-amine] | 58% | 80% |
| Nc1ncnc2c1c(Cc1cccc3ccccc13)nn2Cc1c[nH]cn1 [Compound 31, 1-((1H-imidazol-4-yl)methyl)-3-(naphthalen-1-ylmethyl)-1H-pyrazolo[3,4-d]pyrimidin-4-amine] | 51% | 40% |
| CC(C)(C)n1nc(-c2ccc3ncccc3c2)c2c(N)ncnc21 [Compound 143] | 97% | 97% |
| CC(C)(C)n1nc(-c2ccccc2)c2c(N)ncnc21 [Compound 140] | 98% | 90% |
| CS(=O)(=O)N1CCC(Cn2nc(Cc3cccc4ccccc34)c3c(N)ncnc32)CC1 [Compound 5q, 1-((1-(methylsulfonyl)piperidin-4-yl)methyl)-3-(naphthalen-1-ylmethyl)-1H-pyrazolo[3,4-d]pyrimidin-4-amine] | 78% | 15% |
| CCOc1ccc2cc(-c3nn(C(C)C)c4ncnc(N)c34)ccc2c1 [Compound 7r, 3-(6-ethoxynaphthalen-2-yl)-1-isopropyl-1H-pyrazolo[3,4-d]pyrimidin-4-amine] | 94% | 99% |
| Nc1ncnc2c1c(-c1ccc(-c3nn(CC4CCNCC4)c4ncnc(N)c34)cc1)nn2CC1CCNCC1 [Compound 101] | 79% | 14% |
| Nc1ncnc2c1c(-c1ccc3nccnc3c1)nn2CC1CCNCC1 [Compound 122] | 97% | 32% |
| O=C(c1ccccc1)c1ccc2nc(NC(=O)[C@@H]3CCCN3)[nH]c2c1 [Compound 107] | 65% | 52% |
| Cc1ccc(C(F)(F)F)cc1COc1ccc2cc(-c3nn(C(C)C)c4ncnc(N)c34)ccc2c1 [Compound 50, 1-isopropyl-3-(6-(2-methyl-5-(trifluoromethyl)benzyloxy)naphthalen-2-yl)-1H-pyrazolo[3,4-d]pyrimidin-4-amine] | 83% | 26% |
| CC(C)n1nc(-c2ccc3c(c2)OCO3)c2c(N)ncnc21 [Compound 7u, 3-(benzo[d][1,3]dioxol-5-yl)-1-isopropyl-1H-pyrazolo[3,4-d]pyrimidin-4-amine] | 94% | 77% |
| Nc1ncnc2c1c(-c1ccc(-c3ccccc3)c(F)c1)nn2CC1CCNCC1 [Compound 73, 3-(2-fluorobiphenyl-4-yl)-1-(piperidin-4-ylmethyl)-1H-pyrazolo[3,4-d]pyrimidin-4-amine] | 87% | 14% |
| O=C(NCCC1CCNCC1)Nc1nc2ccc(C(=O)c3ccccc3)cc2[nH]1 [Compound 126] | 76% | 65% |
| CC(C)(C)n1nc(-c2ccc(NC(=O)c3ccccc3)cc2)c2c(N)ncnc21 [Compound 65, N-(4-(4-amino-1-tert-butyl-1H-pyrazolo[3,4-d]pyrimidin-3-yl)phenyl)benzamide] | 101% | 53% |
| CC(C)n1nc(-c2cccc(-c3ccccc3)c2)c2c(N)ncnc21 [Compound 7z, 3-(biphenyl-3-yl)-1-isopropyl-1H-pyrazolo[3,4-d]pyrimidin-4-amine] | 79% | 21% |

| SMILES | inhibition at 3 µM (PfCDPK1) | inhibition at 3 µM (PfCDPK4) |
| --- | --- | --- |
| CC(C)(C)n1nc(-c2ccc(NC(=O)CCl)cc2)c2c(N)ncnc21 [Compound 58, N-(4-(4-amino-1-tert-butyl-1H-pyrazolo[3,4-d]pyrimidin-3-yl)phenyl)-2-chloroacetamide] | 97% | 50% |
| COc1ccc2cc(-c3nn(C(C)(C)C)c4ncnc(N)c34)ccc2c1 [Compound 135] | 96% | 97% |
| CC(C)COc1ccc2cc(-c3nn(C(C)(C)C)c4ncnc(N)c34)ccc2c1 [Compound 130] | 95% | 47% |
| O=C(CCC1CCNCC1)Nc1nc2ccc(C(=O)c3ccccc3)cc2[nH]1 [Compound 117] | 71% | 74% |
| CC(C)c1nc(-c2ccc3ccccc3c2)c2c(N)nccn12 [Compound 8, 3-isopropyl-1-(naphthalen-2-yl)imidazo[1,5-a]pyrazin-8-amine] | 92% | 92% |
| CC(C)(C)c1nc(-c2cnc3ccccc3c2)c2c(N)nccn12 [Compound 72, 3-tert-butyl-1-(quinolin-3-yl)imidazo[1,5-a]pyrazin-8-amine] | 94% | 91% |
| CC(=O)N1CCC(CCn2nc(Cc3cccc4ccccc34)c3c(N)ncnc32)CC1 [Compound 5l, 1-(4-(2-(4-amino-3-(naphthalen-1-ylmethyl)-1H-pyrazolo[3,4-d]pyrimidin-1-yl)ethyl)piperidin-1-yl)ethanone] | 51% | 41% |
| Nc1ncnc2c1c(-c1ccc3ncccc3c1)nn2CC1CCNCC1 [Compound 125] | 89% | 93% |
| CC(C)c1cccc(-c2nn(C(C)C)c3ncnc(N)c23)c1 [Compound 7e, 1-isopropyl-3-(3-isopropylphenyl)-1H-pyrazolo[3,4-d]pyrimidin-4-amine] | 74% | 52% |
| CC(C)CC(=O)Nc1ccc(-c2nn(C(C)(C)C)c3ncnc(N)c23)cc1 [Compound 62, N-(4-(4-amino-1-tert-butyl-1H-pyrazolo[3,4-d]pyrimidin-3-yl)phenyl)-3-methylbutanamide] | 102% | 95% |
| Cc1cccc2[nH]c(-c3nc(C(C)(C)C)n4ccnc(N)c34)cc12 [Compound 83] | 96% | 93% |
| COc1ccc2cc(-c3nc(C(C)(C)C)n4ccnc(N)c34)ccc2c1 [Compound 71, 3-tert-butyl-1-(6-methoxynaphthalen-2-yl)imidazo[1,5-a]pyrazin-8-amine] | 101% | 98% |
| Cn1ccc2cc(-c3nn(C(C)(C)C)c4ncnc(N)c34)ccc21 [Compound 139] | 99% | 96% |
| CCCC(=O)Nc1ccc(-c2nn(C(C)(C)C)c3ncnc(N)c23)cc1 [Compound 61, N-(4-(4-amino-1-tert-butyl-1H-pyrazolo[3,4-d]pyrimidin-3-yl)phenyl)butyramide] | 101% | 80% |
| O=C(NCCCCO)Nc1nc2ccc(C(=O)c3ccccc3)cc2[nH]1 [Compound 127] | 68% | 46% |
| CCOc1ccc2cc(-c3nc(C(C)C)n4ccnc(N)c34)ccc2c1 [Compound 10, 1-(6-ethoxynaphthalen-2-yl)-3-isopropylimidazo[1,5-a]pyrazin-8-amine] | 93% | 94% |
| CC(C)n1nc(-c2ccc3cc(OCc4ccc(Cl)cc4)ccc3c2)c2c(N)ncnc21 [Compound 56, 3-(6-(4-chlorobenzyloxy)naphthalen-2-yl)-1-isopropyl-1H-pyrazolo[3,4-d]pyrimidin-4-amine] | 93% | 73% |
| CC(C)n1nc(-c2ccc3ccccc3c2)c2c(N)ncnc21 [Compound 7p, 1-isopropyl-3-(naphthalen-2-yl)-1H-pyrazolo[3,4-d]pyrimidin-4-amine] | 95% | 98% |
| CC(C)(C)c1nc(-c2ccc3ccccc3c2)c2c(N)nccn12 [Compound 84] | 101% | 99% |
| CC(C)n1nc(-c2ccc3cc(OC(=O)c4cccc(Cl)c4)ccc3c2)c2c(N)ncnc21 [Compound 85] | 99% | 72% |
| CC(C)(C)n1nc(-c2ccc3oc(-c4ccccc4)nc3c2)c2c(N)ncnc21 [Compound 131] | 100% | 38% |
| CCC(=O)Nc1ccc(-c2nn(C(C)(C)C)c3ncnc(N)c23)cc1 [Compound 67, N-(4-(4-amino-1-tert-butyl-1H-pyrazolo[3,4-d]pyrimidin-3-yl)phenyl)propionamide] | 96% | 49% |
| Nc1nc2ccc(C(=O)c3ccccc3)cc2[nH]1 [Compound 92] | 68% | 51% |
